In ChEMBL document CHEMBL1201862, “PubChem BioAssay data set” (2004):
Several values for one entry are separate records, joined by “and”; a condition that tells them apart may be missing. Equal values may be shown once. Activity calls are given as the source filed them.

Tests used:
HEK293 [1] = assay: cells; assay type: functional, cell-based; settings: Homo sapiens
HEK293 [2] = assay: cells; assay type: functional, cell-based; settings: Homo sapiens; remark: listed apart in the source
Tumor necrosis factor = Tumor necrosis factor (Homo sapiens, UniProt P01375); assay: analog potency on TNFa NF-kB signaling – cell-based, revised, SAR follow-up (AID 2337); assay type: functional
Chain of Tumor necrosis factor (P01375 whole entry): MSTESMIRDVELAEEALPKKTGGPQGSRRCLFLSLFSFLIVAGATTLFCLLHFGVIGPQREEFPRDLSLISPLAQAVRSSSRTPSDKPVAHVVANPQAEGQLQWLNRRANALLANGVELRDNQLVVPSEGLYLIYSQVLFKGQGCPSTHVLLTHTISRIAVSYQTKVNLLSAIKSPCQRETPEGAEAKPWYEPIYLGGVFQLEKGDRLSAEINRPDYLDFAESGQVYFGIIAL

HEK293 [3] = assay: cells; assay type: functional, cell-based; settings: Homo sapiens; remark: listed apart in the source
[4] = HEK-293T viability loss after treatment – luminescence, T-cell screen hits, cytotoxicity control for TCR NF-kB inhibitor project, dose response (AID 489026); assay type: functional, cell-based;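 note: cells exposed to compound about 14 hours before the viability readout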
HEK293 [5] = assay: NOD2 signaling inhibitors in MDP-stimulated cells, cell-based, uHTS, luminescence (AID 2001); assay type: functional; settings: Homo sapiens
HEK293 [6] = assay: inhibition of NOD1-driven NF-kB reporter – cell-based, luminescence, uHTS, primary screen (AID 1578); assay type: functional; settings: Homo sapiens
[7] = molecular target: Nucleotide-binding oligomerization domain-containing protein 1 (Homo sapiens, UniProt Q9Y239); assay: blockers of NOD1 pathway activity – revised, SAR follow-up (AID 2333); assay type: functional
[8] = molecular target: Nucleotide-binding oligomerization domain-containing protein 2 (Homo sapiens, UniProt Q9HC29); assay: inhibition of NOD2-driven NF-kB reporter – cell-based, luminescence, uHTS, HEK293 (AID 1566); assay type: functional
HEK293 [9] = assay: cells; settings: Homo sapiens
[10] = molecular target: T1, Intestinal-type alkaline phosphatase (Mus musculus, UniProt P24822); assay: PubChem AID 488785; assay type: functional
T1 sequence (P24822 whole entry): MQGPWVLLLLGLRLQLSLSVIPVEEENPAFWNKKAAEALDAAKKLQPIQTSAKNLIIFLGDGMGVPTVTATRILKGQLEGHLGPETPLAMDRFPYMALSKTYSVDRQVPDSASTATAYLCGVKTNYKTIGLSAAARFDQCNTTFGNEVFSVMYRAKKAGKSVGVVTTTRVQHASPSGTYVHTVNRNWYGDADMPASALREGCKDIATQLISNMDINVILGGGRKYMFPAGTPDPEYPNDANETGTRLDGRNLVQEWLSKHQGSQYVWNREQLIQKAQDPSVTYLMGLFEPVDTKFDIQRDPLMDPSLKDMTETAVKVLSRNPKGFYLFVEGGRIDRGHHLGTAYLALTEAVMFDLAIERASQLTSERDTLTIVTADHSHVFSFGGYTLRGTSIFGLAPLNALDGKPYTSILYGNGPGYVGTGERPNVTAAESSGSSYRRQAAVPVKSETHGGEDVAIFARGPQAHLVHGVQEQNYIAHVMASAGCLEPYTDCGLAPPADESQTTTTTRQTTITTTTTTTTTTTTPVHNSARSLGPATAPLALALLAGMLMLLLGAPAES

[11] = molecular target: Intestinal-type alkaline phosphatase (Homo sapiens, UniProt P09923); assay: activation of human intestinal alkaline phosphatase – biochemical, dose response (AID 488873); assay type: functional
Chain of Intestinal-type alkaline phosphatase (Homo sapiens, UniProt P09923) (P09923 whole entry): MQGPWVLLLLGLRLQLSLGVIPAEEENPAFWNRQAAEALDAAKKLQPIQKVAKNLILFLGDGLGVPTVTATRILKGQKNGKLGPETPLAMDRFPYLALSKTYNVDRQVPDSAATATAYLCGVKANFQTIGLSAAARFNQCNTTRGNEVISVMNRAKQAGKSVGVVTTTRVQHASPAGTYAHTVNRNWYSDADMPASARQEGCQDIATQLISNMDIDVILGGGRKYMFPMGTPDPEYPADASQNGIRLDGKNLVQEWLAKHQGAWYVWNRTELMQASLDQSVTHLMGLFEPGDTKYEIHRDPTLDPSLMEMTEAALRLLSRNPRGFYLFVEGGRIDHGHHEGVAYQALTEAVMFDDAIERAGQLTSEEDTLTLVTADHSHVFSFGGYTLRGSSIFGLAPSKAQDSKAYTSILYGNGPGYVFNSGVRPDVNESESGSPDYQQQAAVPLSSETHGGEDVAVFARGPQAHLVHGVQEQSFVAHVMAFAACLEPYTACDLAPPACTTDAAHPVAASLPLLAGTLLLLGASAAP

[12] = molecular target: T2, Alkaline phosphatase, tissue-nonspecific isozyme (Homo sapiens, UniProt P05186); assay: TNAP enzyme inhibition by screening hits, dose response, selectivity assay for mouse IAP inhibitor project, biochemical, human TNAP, uHTS hits (AID 488906); assay type: functional
T2 sequence (P05186 whole entry): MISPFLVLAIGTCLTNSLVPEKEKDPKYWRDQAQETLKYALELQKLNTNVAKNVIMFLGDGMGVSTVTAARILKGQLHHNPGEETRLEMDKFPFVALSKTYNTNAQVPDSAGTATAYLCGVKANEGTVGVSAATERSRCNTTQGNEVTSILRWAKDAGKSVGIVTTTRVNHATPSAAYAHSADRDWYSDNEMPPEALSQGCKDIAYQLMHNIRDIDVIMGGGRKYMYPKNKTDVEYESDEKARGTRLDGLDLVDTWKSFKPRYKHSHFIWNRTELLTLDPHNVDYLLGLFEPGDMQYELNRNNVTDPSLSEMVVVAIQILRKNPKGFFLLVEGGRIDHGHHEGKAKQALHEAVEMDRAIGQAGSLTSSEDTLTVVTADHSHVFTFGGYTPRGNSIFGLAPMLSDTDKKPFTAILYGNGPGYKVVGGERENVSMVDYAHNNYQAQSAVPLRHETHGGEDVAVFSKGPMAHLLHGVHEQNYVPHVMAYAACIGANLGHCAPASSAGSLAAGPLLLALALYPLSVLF

[13] = molecular target: T1, Intestinal-type alkaline phosphatase; assay: mouse intestinal alkaline phosphatase activators, dose response, biochemical, luminescence, uHTS hits (AID 488783); assay type: functional
[14] = molecular target: T2, Alkaline phosphatase, tissue-nonspecific isozyme; assay: activation of tissue-nonspecific alkaline phosphatase – biochemical, TNAP isozyme, mouse IAP uHTS hits, selectivity assay for mouse IAP activator project, dose response (AID 488880); assay type: functional
[15] = molecular target: T3, Heat shock factor protein 1 (Mus musculus, UniProt P38532); assay: decrease of HSF1-responsive luciferase luminescence – cell-based, NIH3T3, dose retest, confirmation (AID 2382); assay type: functional;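 note: NIH3T3 fibroblasts with HSF1-driven luciferase reporter stressed by proteasome inhibitor MG132; luminescence from HSF1-driven luciferase expression after 8 hours of MG132 stress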
T3 sequence (P38532 whole entry): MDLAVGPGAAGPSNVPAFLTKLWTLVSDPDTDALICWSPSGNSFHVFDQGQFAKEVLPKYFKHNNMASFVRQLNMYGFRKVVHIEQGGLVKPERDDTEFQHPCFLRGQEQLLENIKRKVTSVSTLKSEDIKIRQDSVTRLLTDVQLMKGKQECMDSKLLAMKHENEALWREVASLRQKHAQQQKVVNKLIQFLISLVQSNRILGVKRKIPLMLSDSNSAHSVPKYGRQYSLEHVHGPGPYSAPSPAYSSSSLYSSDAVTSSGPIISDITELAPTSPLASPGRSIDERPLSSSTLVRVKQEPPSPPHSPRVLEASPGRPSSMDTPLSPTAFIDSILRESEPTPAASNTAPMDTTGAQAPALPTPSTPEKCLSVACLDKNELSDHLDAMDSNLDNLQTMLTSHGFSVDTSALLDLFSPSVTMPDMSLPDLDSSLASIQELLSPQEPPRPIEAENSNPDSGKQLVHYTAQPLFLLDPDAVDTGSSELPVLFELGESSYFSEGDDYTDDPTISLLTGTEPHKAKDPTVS

[16] = molecular target: G-protein coupled receptor 55 (Homo sapiens, UniProt Q9Y2T6); assay: SAR Analysis of Selective Antagonists of GPR55 using an Image-Based Assay - Set 4. [Related pubchem assays (depositor defined):AID2013, AID2026]; assay type: functional;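 note: antagonism of response to 5 µM lysophosphatidylinositol agonist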
Chain of G-protein coupled receptor 55 (Q9Y2T6 whole entry): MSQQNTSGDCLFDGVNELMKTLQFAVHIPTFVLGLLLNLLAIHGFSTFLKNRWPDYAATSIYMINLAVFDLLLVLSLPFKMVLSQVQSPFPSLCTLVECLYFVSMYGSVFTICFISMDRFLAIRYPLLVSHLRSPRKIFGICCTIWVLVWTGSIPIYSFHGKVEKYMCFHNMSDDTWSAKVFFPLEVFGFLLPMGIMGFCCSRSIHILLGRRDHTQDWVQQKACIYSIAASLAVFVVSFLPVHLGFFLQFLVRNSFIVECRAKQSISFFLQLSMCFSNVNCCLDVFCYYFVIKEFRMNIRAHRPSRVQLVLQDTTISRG

[17] = molecular target: T4, G-protein coupled receptor 35 (Homo sapiens, UniProt Q9HC97); assay: SAR analysis of Antagonists of the GPR35 Receptor using an Image-Based Assay - Set 6. [Related pubchem assays (depositor defined):AID2013, AID2026]; assay type: functional
T4 sequence (Q9HC97 whole entry): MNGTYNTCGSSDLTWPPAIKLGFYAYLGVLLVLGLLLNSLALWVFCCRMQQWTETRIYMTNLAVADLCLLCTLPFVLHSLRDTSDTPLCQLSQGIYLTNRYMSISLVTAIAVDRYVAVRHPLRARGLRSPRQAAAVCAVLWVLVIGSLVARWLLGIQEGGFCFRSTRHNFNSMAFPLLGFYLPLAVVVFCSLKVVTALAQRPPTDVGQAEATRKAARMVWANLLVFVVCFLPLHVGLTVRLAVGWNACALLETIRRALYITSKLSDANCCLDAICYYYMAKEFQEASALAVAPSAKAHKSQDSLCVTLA

Cannabinoid receptor 1 [18] = molecular target: T5, Cannabinoid receptor 1 (Homo sapiens, UniProt P21554); assay: SAR analysis of antagonists of the Cannabinoid Receptor 1 using an Image-Based Assay - Set 4. [Related pubchem assays (depositor defined):AID2013, AID2026]; assay type: functional
T5 sequence (P21554 whole entry): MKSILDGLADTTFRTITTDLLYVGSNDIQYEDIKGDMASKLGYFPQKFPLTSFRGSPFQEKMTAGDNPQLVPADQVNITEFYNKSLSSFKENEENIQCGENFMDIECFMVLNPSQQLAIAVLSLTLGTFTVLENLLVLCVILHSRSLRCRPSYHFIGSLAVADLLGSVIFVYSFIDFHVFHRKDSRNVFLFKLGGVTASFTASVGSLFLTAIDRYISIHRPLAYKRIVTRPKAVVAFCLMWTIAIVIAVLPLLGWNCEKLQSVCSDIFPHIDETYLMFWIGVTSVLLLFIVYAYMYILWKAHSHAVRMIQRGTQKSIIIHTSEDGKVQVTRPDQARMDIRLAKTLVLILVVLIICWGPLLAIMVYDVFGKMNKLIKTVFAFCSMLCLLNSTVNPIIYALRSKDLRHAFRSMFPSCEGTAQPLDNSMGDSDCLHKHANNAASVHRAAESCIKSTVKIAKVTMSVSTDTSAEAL

[19] = molecular target: T4, G-protein coupled receptor 35; assay: SAR analysis of Agonists of the GPR35 Receptor using an Image-Based Assay - Set 4. [Related pubchem assays (depositor defined):AID2013, AID2026]; assay type: functional
Cannabinoid receptor 2 [20] = molecular target: T6, Cannabinoid receptor 2 (Homo sapiens, UniProt P34972); assay: SAR analysis of agonists of the Cannabinoid Receptor 2 using an Image-Based Assay - Set 3. [Related pubchem assays (depositor defined):AID2013, AID2026]; assay type: functional
T6 sequence (P34972 whole entry): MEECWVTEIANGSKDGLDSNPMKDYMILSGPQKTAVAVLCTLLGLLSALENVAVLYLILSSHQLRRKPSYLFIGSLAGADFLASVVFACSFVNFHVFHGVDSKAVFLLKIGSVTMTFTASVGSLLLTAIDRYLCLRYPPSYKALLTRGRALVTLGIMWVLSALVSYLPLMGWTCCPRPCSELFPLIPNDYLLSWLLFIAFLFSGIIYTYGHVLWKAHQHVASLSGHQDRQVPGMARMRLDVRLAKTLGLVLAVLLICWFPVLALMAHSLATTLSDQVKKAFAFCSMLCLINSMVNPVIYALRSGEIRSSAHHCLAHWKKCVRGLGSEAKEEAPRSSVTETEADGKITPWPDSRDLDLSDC

Cytochrome P450 2D6 = Cytochrome P450 2D6 (Homo sapiens, UniProt P10635);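 note: CYP2D6 member of a cytochrome P450 panel assay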
Chain of Cytochrome P450 2D6 (P10635 whole entry): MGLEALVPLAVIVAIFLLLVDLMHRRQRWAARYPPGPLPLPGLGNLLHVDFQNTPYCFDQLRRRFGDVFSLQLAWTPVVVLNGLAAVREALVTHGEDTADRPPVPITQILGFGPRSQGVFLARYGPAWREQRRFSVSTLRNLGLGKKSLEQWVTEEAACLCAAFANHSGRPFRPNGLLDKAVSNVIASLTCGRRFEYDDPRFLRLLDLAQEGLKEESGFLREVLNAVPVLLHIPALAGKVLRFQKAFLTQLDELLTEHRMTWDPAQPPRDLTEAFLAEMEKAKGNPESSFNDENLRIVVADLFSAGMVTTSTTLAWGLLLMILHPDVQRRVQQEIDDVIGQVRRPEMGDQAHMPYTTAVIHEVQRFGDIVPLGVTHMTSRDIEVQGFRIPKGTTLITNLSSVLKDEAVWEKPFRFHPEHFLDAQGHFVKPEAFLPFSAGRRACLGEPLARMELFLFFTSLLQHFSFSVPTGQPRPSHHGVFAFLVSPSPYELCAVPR

Cannabinoid receptor 1 [21] = molecular target: T5, Cannabinoid receptor 1; assay: SAR analysis of agonists of the Cannabinoid Receptor 1 using an Image-Based Assay - Set 4. [Related pubchem assays (depositor defined):AID2013, AID2026]; assay type: functional
Streptokinase A = molecular target: T7, Streptokinase A (Streptococcus pyogenes serotype M1, UniProt P10520); assay: viability-normalized secreted streptokinase activity reduction – plasminogen activation absorbance, OD405, dose response (AID 1914); assay type: functional, Streptococcus pyogenes M1 GAS;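 note: secreted streptokinase activity via plasminogen activation per viability signal from cell pellet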
T7 sequence (P10520 whole entry): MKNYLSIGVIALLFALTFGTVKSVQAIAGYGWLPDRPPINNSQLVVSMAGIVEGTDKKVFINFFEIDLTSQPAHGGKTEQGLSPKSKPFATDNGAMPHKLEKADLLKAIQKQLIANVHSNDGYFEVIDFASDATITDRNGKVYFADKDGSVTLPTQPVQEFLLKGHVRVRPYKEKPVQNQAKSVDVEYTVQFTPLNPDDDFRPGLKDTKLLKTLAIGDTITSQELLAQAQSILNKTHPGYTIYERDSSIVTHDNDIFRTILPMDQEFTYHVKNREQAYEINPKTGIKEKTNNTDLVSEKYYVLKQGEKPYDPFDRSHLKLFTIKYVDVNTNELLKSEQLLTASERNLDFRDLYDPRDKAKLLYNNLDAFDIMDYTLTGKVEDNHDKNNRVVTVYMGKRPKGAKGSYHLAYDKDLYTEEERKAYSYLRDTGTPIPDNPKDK

Cannabinoid receptor 2 [22] = molecular target: T6, Cannabinoid receptor 2; assay: SAR analysis of antagonists of the Cannabinoid Receptor 2 using an Image-Based Assay - Set 3. [Related pubchem assays (depositor defined):AID2013, AID2026]; assay type: functional
[23] = molecular target: T8, Tyrosine-protein phosphatase non-receptor type 22 (Homo sapiens, UniProt Q9Y2R2); assay type: functional
T8 sequence (Q9Y2R2 whole entry): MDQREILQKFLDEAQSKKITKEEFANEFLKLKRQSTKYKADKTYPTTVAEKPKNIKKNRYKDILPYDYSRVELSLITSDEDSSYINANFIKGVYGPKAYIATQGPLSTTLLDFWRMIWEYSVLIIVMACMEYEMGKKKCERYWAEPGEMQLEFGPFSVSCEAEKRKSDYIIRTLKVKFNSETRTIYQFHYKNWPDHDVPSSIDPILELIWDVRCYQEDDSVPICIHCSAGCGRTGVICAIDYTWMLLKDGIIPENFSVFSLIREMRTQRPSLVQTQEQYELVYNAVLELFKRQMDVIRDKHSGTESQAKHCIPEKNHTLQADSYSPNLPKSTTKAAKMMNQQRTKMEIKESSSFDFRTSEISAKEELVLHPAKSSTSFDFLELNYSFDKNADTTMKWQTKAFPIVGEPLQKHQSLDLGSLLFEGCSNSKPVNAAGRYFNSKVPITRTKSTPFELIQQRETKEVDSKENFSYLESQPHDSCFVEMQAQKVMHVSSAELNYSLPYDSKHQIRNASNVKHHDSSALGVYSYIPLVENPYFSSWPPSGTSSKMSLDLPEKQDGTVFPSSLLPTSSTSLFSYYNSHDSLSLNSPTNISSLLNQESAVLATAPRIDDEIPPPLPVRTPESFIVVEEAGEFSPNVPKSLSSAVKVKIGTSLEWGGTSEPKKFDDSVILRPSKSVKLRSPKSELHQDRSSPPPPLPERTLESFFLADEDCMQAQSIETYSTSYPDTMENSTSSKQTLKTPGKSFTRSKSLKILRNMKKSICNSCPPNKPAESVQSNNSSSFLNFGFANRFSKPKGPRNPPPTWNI

[24] = molecular target: Tyrosine-protein phosphatase non-receptor type 7 (Homo sapiens, UniProt P35236); assay type: functional
Chain of Tyrosine-protein phosphatase non-receptor type 7 (P35236 whole entry): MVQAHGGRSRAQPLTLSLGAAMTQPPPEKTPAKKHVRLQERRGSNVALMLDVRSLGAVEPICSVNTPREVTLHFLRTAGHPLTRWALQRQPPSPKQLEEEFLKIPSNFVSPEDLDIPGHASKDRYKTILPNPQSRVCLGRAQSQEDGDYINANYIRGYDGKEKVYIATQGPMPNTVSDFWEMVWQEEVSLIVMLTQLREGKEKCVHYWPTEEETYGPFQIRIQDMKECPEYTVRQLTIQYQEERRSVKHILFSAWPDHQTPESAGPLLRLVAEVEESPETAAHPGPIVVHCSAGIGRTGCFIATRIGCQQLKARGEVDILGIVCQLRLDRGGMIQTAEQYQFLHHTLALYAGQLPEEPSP

[25] = molecular target: T8, Tyrosine-protein phosphatase non-receptor type 22; assay type: functional; remark: listed apart in the source
CAAX prenyl protease 2 = CAAX prenyl protease 2 (Homo sapiens, UniProt Q9Y256); assay: inhibition of Ras-converting CAAX protease Rce1 – biochemical, yeast membranes, quenched-peptide fluorescence, cherry-pick, dose response (AID 588849)
Chain of CAAX prenyl protease 2 (Q9Y256 whole entry): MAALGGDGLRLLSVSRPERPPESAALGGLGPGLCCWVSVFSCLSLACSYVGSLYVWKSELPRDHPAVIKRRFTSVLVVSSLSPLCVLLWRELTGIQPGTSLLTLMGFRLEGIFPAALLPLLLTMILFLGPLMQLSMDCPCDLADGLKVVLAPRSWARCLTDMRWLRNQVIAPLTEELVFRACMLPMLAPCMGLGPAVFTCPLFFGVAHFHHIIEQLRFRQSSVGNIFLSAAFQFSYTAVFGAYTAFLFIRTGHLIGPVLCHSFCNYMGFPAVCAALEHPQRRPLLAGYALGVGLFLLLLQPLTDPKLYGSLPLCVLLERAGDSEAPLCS

CAAX prenyl protease 1 = CAAX prenyl protease 1 (Saccharomyces cerevisiae S288c, UniProt P47154); assay: yeast CAAX protease Ste24 inhibition – biochemical, S. cerevisiae, plate reader, cherry-pick, dose response (AID 488815)
Chain of CAAX prenyl protease 1 (P47154 whole entry): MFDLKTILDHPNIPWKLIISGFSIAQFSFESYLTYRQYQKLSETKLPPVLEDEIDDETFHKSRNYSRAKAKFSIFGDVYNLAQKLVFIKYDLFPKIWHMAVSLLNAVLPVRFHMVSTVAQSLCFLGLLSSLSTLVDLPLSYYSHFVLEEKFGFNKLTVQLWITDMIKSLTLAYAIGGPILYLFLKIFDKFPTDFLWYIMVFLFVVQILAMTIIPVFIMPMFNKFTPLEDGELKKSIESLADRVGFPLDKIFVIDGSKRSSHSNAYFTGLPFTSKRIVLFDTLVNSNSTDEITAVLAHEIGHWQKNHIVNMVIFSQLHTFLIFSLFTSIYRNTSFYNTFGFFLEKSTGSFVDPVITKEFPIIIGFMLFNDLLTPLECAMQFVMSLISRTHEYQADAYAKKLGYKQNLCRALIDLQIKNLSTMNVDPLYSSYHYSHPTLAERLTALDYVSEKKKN

Phosphomannomutase 2 = Phosphomannomutase 2 (Homo sapiens, UniProt O15305); assay: Counter screen SAR assay for PMM2 inhibitors via a fluorescence intensity assay. [Related pubchem assays (depositor defined):AID1545, AID1574]
[26] = molecular target: Phosphoethanolamine/phosphocholine phosphatase (Homo sapiens, UniProt Q8TCT1); assay: SAR assay for compounds that inhibit PHOSPHO1. [Related pubchem assays (depositor defined):AID1545, AID1565, AID1574]
Chain of Phosphoethanolamine/phosphocholine phosphatase (Q8TCT1 whole entry): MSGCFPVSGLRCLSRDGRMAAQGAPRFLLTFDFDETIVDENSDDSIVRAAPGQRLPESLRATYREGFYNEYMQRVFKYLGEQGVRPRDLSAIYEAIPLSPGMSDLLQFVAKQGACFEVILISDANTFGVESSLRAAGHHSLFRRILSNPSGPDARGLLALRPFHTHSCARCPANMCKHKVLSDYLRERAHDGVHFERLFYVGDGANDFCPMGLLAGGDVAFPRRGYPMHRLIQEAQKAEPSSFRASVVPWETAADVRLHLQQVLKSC

[27] = molecular target: T9, Mannose-6-phosphate isomerase (Homo sapiens, UniProt P34949); assay: phosphomannose isomerase inhibition – biochemical, fluorescence intensity, confirmation (AID 1535)
T9 sequence (P34949 whole entry): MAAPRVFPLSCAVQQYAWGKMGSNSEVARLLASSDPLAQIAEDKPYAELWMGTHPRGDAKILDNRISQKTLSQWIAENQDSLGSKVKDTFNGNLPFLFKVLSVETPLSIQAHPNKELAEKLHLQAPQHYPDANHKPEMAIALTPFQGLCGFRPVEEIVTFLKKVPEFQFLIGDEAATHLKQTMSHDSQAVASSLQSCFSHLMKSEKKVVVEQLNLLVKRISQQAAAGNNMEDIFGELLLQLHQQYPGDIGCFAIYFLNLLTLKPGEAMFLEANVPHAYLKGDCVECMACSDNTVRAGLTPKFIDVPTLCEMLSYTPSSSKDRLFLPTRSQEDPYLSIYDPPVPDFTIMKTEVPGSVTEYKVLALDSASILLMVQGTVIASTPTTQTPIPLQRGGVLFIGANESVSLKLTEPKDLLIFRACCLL

Cc1cc(-c2ccc(C)c(S(=O)(=O)N3CCN(c4ccc([N+](=O)[O-])cc4)CC3)c2)on1
IC50 (HEK293 [1]): 2.36 µM (active) | IC50 (HEK293 [2]): > 20 µM (inactive) | IC50 (Tumor necrosis factor): 2.11 µM (active) | IC50 (HEK293 [3]): > 20 µM (inactive) | IC50 [4]: > 80 µM (inactive) | IC50 (HEK293 [5]): 7.6 µM (inactive) | EC50 (HEK293 [6]): 2.09 µM (active) | IC50 [7]: 2.42 µM (active) | EC50 [8]: > 20 µM (inactive) | IC50 (HEK293 [9]): > 20 µM (inactive)

COc1ccc(OC)c(NC(=O)CCNS(=O)(=O)c2ccc3[nH]c(=O)oc3c2)c1
IC50 [10]: 2.49 µM (active) | EC50 [11]: > 100 µM (inactive) | IC50 [12]: > 100 µM (inactive)

COc1cc(OC)c(NC(=O)CN(C)S(=O)(=O)c2ccc3nc(O)oc3c2)cc1Cl
EC50 [13]: 51.5 µM (active) | EC50 [14]: 70.7 µM (active) | EC50 [11]: 68.4 µM (active) | EC50 [15]: > 195 µM (not active)

COc1ccc(-c2n[nH]c(C)c2-c2ccc(Cl)cc2)c(O)c1
IC50 [16]: 10.9 µM (inactive) and 13.4 µM (inactive) | IC50 [17]: > 32 µM (inactive) | IC50 (Cannabinoid receptor 1 [18]): 548 nM (active) and 607 nM (active) | EC50 [19]: > 32 µM (inactive) | EC50 (Cannabinoid receptor 2 [20]): 4.81 µM (active) and 5.4 µM (active) | AC50 (Cytochrome P450 2D6): 28.2 µM (inconclusive) | EC50 (Cannabinoid receptor 1 [21]): > 32 µM (inactive) | EC50 (Streptokinase A): 9.86 µM (active) | IC50 (Cannabinoid receptor 2 [22]): 5.22 µM (active) and 4.83 µM (active)

C=CCN(CC=C)C(=S)NC(=O)/C=C/c1ccc(C)cc1
IC50 [23]: > 79.4 µM (inactive) | IC50 [24]: > 79.4 µM (inactive) | IC50 [25]: > 79.4 µM (inactive)

O=C(NCC1CC1)c1cc(-c2ccccc2)nn1CC1CC(c2cccc([N+](=O)[O-])c2)=NO1 (centres undefined)
AC50 (CAAX prenyl protease 2): 11.7 µM (active) | AC50 (CAAX prenyl protease 1): 6.73 µM (active)

O=c1c2ccc(F)cc2sn1-c1ccc(Cl)cc1Cl
IC50 (Phosphomannomutase 2): > 100 µM (inactive) | IC50 [26]: 0.534 µM (active) | IC50 [27]: 14.4 µM (active)
